Tests used:
[1] = target: 3',5'-cyclic-AMP phosphodiesterase 4A (Homo sapiens, UniProt P27815); assay: PDE4A activity assessed using human recombinant purified GST-PDE4A248
Mustela putorius furo = organism: Mustela putorius furo; assay: Emetic effect in ferret model, threshold value; type: functional

3',5'-cyclic-AMP phosphodiesterase 4A, sequence (P27815 whole entry): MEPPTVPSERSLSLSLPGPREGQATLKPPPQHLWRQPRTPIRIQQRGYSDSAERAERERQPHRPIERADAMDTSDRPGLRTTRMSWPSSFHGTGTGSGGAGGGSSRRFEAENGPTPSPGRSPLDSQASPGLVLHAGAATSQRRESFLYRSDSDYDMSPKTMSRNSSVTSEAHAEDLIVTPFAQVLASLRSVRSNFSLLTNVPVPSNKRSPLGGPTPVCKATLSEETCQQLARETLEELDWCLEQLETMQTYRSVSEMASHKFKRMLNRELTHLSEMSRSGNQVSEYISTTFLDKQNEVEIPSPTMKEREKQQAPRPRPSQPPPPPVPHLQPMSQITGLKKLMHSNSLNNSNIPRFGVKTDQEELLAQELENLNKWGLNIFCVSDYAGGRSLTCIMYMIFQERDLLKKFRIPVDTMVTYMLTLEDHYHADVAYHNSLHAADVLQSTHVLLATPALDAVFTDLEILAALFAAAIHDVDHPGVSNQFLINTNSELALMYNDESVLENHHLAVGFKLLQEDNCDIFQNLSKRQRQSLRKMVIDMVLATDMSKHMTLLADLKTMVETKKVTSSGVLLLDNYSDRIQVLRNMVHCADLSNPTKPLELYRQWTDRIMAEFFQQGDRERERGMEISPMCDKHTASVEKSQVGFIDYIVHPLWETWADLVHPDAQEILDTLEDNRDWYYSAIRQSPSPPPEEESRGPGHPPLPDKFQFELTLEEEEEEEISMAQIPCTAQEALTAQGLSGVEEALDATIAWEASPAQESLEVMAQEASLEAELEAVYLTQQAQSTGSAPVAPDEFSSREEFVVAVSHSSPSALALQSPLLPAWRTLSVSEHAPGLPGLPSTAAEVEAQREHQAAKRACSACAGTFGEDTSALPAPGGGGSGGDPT

Row | IC50 [1] [nM] | Structure (SMILES) | Threshold value (Mustela putorius furo) [mg/kg]
1 | > 10000 | c1ccc(-c2ccc(-c3ccccc3)o2)cc1 | –
2 | 2300 | c1ccc(-c2cc(N3CCOCC3)c(-c3ccccc3)o2)cc1 | –
3 | 770 | COc1ccc(-c2oc(-c3ccccn3)cc2S(=O)(=O)c2ccccc2)cc1OC1CCCC1 | –
4 | 65 | COc1ccc(-c2ccc(-c3ccncc3)o2)cc1OC1CCCC1 | –

The remaining lines, values behind:

Row | Structure (SMILES) | IC50 [1] [nM] | Threshold value (Mustela putorius furo) [mg/kg]
5 | O=C(c1ccccc1)c1cc(-c2ccccc2)oc1-c1ccccc1 | 340 | –
6 | COc1ccc(-c2cc(C(C)=O)c(-c3ccc(OC)c(OC)c3)o2)cc1OC | 120 | –
7 | COc1ccc(-c2ccc(-c3ccc(OC)c(OC)c3)o2)cc1OC | 560 | –
8 | COc1ccc(-c2ccc(-c3ccc(OC)c(OC4CCCC4)c3)o2)cc1OC1CCCC1 | 44 | –
9 | COc1ccc(-c2ccc(-c3cccnc3)o2)cc1OC1CCCC1 | 370 | –
10 | COc1ccc(-c2cc(S(=O)(=O)c3ccccc3)c(-c3ccccn3)o2)cc1OC1CCCC1 | 740 | –
11 | COc1ccc(-c2ccc(-c3ccccn3)o2)cc1OC1CCCC1 | 25 | 10
12 | COc1ccc(-c2oc(-c3ccccn3)cc2C(=O)c2ccccc2)cc1OC1CCCC1 | 590 | –
13 | COc1ccc(-c2ccc(-c3ccc4ccccc4n3)o2)cc1OC1CCCC1 | 190 | –
14 | COc1ccc([C@@H]2CNC(=O)C2)cc1OC1CCCC1 [(-)-ROLIPRAM] | – | 0.3

Source: ChEMBL document CHEMBL1131915, “Substituted furans as inhibitors of the PDE4 enzyme” (Bioorg Med Chem Lett, 1999)
